The results in this text go back to the supplement of paper PMC4449167.

In the assay the test system is WB-F344. Put plainly: gap junctional intercellular communication (dye spread) relative to vehicle control (fraction of control); higher = more gap junction communication (less inhibition). The protocol: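 Confluent WB-F344 rat liver epithelial cells were pretreated with vehicle, D609 (PC-PLC inhibitor, 50 µM, 20 min), U0126 (MEK1/2 inhibitor, 20 µM, 30 min) or resveratrol (100 µM, 15 min), then exposed to a GJIC-dysregulating chemical at the listed dose and time. GJIC was measured by scalpel loading-dye transfer with Lucifer Yellow (3 min), and the dye-spread area was quantified in ImageJ as a fraction of the vehicle control (FOC). Individual values come from at least 3 independent experiments.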

Where [1] appears, read: pretreatment: D609+GJIC dysreg.
[2] abbreviates: pretreatment: U0126+GJIC dysreg.

± gives the standard deviation of the averaged measurements.

Turning to `CC(C)C[C@H](NC(=O)[C@H](CC(C)C)NC(=O)[C@H](Cc1ccccc1)NC(=O)[C@@H](N)CO)C(=O)N[C@@H](CCCN=C(N)N)C(=O)N[C@@H](CC(N)=O)C(=O)O` [Thrombin receptor activator peptide-6] (compound abbreviation / co-treatment: TRAP-6, exposure (dose, time): 50 µM, 30 min), the “gap junctional intercellular communication” value was 0.588 ± 0.089 under setting [1], 0.4 ± 0.058 (pretreatment: GJIC dysreg.), 0.967 ± 0.04 (pretreatment: RES+GJIC dysreg.) and 1.05 ± 0.036 under setting [2].

With `Cc1cccc2c1Cc1ccccc1-2` [1-Methylfluoren] (compound abbreviation / co-treatment: 1-MeFlu, exposure (dose, time): 70 µM, 10 min), the “gap junctional intercellular communication” value stood at 0.84 ± 0.13 under setting [1], 0.266 ± 0.076 (pretreatment: GJIC dysreg.), 1 ± 0.17 (pretreatment: RES+GJIC dysreg.) and 0.318 ± 0.052 under setting [2].

Take `c1ccc2c(c1)-c1cccc3cccc-2c13` [Fluoranthene] (compound abbreviation / co-treatment: Fla, exposure (dose, time): 70 µM, 10 min): the “gap junctional intercellular communication” value turned out to be 0.718 ± 0.11 under setting [1], 0.245 ± 0.064 (pretreatment: GJIC dysreg.), 0.937 ± 0.23 (pretreatment: RES+GJIC dysreg.) and 0.285 ± 0.091 under setting [2].

In the case of `CCCCC/C=C\C/C=C\C/C=C\C/C=C\CCCC(=O)O` [Arachidonic acid] (compound abbreviation / co-treatment: AA, exposure (dose, time): 70-100 µM, 15 min), the “gap junctional intercellular communication” value runs as follows: (dose note: (70 uM), pretreatment: D609+GJIC dysreg.) 0.164; (dose note: (70 uM), pretreatment: GJIC dysreg.) 0.196; (dose note: (70 uM), pretreatment: RES+GJIC dysreg.) 0.193; (dose note: (70 uM), pretreatment: U0126+GJIC dysreg.) 0.244; (dose note: (75 uM), pretreatment: D609+GJIC dysreg.) 0.2; (dose note: (75 uM), pretreatment: GJIC dysreg.) 0.2. Besides, the “gap junctional intercellular communication” value reads like this: (dose note: (75 uM), pretreatment: RES+GJIC dysreg.) 0.207; (dose note: (75 uM), pretreatment: U0126+GJIC dysreg.) 0.216; (dose note: (90 uM), pretreatment: D609+GJIC dysreg.) 0.29 ± 0.055; (dose note: (90 uM), pretreatment: GJIC dysreg.) 0.279 ± 0.058; (dose note: (90 uM), pretreatment: RES+GJIC dysreg.) 0.25 ± 0.032; (dose note: (90 uM), pretreatment: U0126+GJIC dysreg.) 0.347 ± 0.025. Further, the “gap junctional intercellular communication” value by setting is: (dose note: (100 uM), pretreatment: D609+GJIC dysreg.) 0.196; (dose note: (100 uM), pretreatment: GJIC dysreg.) 0.193; (dose note: (100 uM), pretreatment: RES+GJIC dysreg.) 0.189; (dose note: (100 uM), pretreatment: U0126+GJIC dysreg.) 0.199.

Consider `O=C(O)C(F)(F)C(F)(F)C(F)(F)C(F)(F)C(F)(F)C(F)(F)C(F)(F)F` [Perfluorooctanoic acid] (compound abbreviation / co-treatment: PFOA, exposure (dose, time): 80 µM, 10 min), for which the “gap junctional intercellular communication” value came out at 0.661 ± 0.15 under setting [1], 0.24 ± 0.054 (pretreatment: GJIC dysreg.), 0.743 ± 0.12 (pretreatment: RES+GJIC dysreg.) and 0.44 ± 0.12 under setting [2].

Take `CC(C)(OOC(C)(C)c1ccccc1)c1ccccc1` [Dicumylperoxide] (compound abbreviation / co-treatment: DiCuOOH, exposure (dose, time): 50 µM, 15 min): the “gap junctional intercellular communication” value worked out at 0.884 ± 0.058 under setting [1], 0.386 ± 0.088 (pretreatment: GJIC dysreg.), 0.829 ± 0.081 (pretreatment: RES+GJIC dysreg.) and 0.324 ± 0.11 under setting [2].

Take `c1cc2ccc3cccc4ccc(c1)c2c34` [Pyrene] (compound abbreviation / co-treatment: Pyr, exposure (dose, time): 70 µM, 10 min): the “gap junctional intercellular communication” value runs as follows: under setting [1], 0.844 ± 0.084; (pretreatment: GJIC dysreg.) 0.375 ± 0.078; (pretreatment: RES+GJIC dysreg.) 0.802 ± 0.099; under setting [2], 0.376 ± 0.061.

For the compound `CC1(C)[C@@H](O)CC[C@]2(C)[C@H]3C(=O)C=C4[C@@H]5C[C@@](C)(C(=O)O)CC[C@]5(C)CC[C@@]4(C)[C@]3(C)CC[C@@H]12` [ß-Glycyrrhetinic acid] (compound abbreviation / co-treatment: BGA, exposure (dose, time): 30-50 µM, 15 min), the “gap junctional intercellular communication” value was determined as 0.242 ± 0.036 (dose note: (30 uM), pretreatment: D609+GJIC dysreg.); 0.353 ± 0.03 (dose note: (30 uM), pretreatment: GJIC dysreg.); 0.302 ± 0.023 (dose note: (30 uM), pretreatment: RES+GJIC dysreg.); 0.344 ± 0.053 (dose note: (30 uM), pretreatment: U0126+GJIC dysreg.); 0.225 ± 0.034 (dose note: (50 uM), pretreatment: D609+GJIC dysreg.); 0.242 ± 0.042 (dose note: (50 uM), pretreatment: GJIC dysreg.). The “gap junctional intercellular communication” value by setting is: (dose note: (50 uM), pretreatment: RES+GJIC dysreg.) 0.243 ± 0.038; (dose note: (50 uM), pretreatment: U0126+GJIC dysreg.) 0.269 ± 0.028.

As to `Clc1cc(Cl)c(-c2cc(Cl)c(Cl)cc2Cl)cc1Cl` [2,2',4,4',5,5'-Hexachlorobiphenyl] (compound abbreviation / co-treatment: PCB 153, exposure (dose, time): 50 µM, 30 min), the “gap junctional intercellular communication” value is, setting by setting: under setting [1], 0.781 ± 0.17; (pretreatment: GJIC dysreg.) 0.353 ± 0.093; (pretreatment: RES+GJIC dysreg.) 0.857 ± 0.11; under setting [2], 0.278 ± 0.083.

As for `O=S(=O)(O)C(F)(F)C(F)(F)C(F)(F)C(F)(F)C(F)(F)C(F)(F)C(F)(F)C(F)(F)F` [Perfluorooctanesulfonic acid] (compound abbreviation / co-treatment: PFOSA, exposure (dose, time): 40 µM, 20 min), the “gap junctional intercellular communication” value was determined as 0.287 ± 0.045 under setting [1], 0.279 ± 0.041 (pretreatment: GJIC dysreg.), 0.329 ± 0.097 (pretreatment: RES+GJIC dysreg.) and 0.289 ± 0.037 under setting [2].

`CCCCCCCCCCCC(=O)OCC(O)CO` (configuration not stated) [1-Monolaurin] (compound abbreviation / co-treatment: Lau, exposure (dose, time): 150 µM, 10 min): the “gap junctional intercellular communication” value runs as follows: under setting [1], 0.245 ± 0.028; (pretreatment: GJIC dysreg.) 0.229 ± 0.026; (pretreatment: RES+GJIC dysreg.) 0.245 ± 0.034; under setting [2], 0.234 ± 0.034.

Turning to `c1ccc2c(c1)Cc1ccccc1-2` [Fluoren] (compound abbreviation / co-treatment: Flu, exposure (dose, time): 100 µM, 10 min), the “gap junctional intercellular communication” value was determined as 0.884 ± 0.12 under setting [1], 0.253 ± 0.034 (pretreatment: GJIC dysreg.), 0.848 ± 0.12 (pretreatment: RES+GJIC dysreg.) and 0.309 ± 0.013 under setting [2].

Turning to `Oc1c(Cl)c(Cl)c(Cl)c(Cl)c1Cl` [Pentachlorophenol] (compound abbreviation / co-treatment: PCP, exposure (dose, time): 50 µM, 10 min), the “gap junctional intercellular communication” value amounted to 0.335 ± 0.068 under setting [1], 0.282 ± 0.055 (pretreatment: GJIC dysreg.), 0.387 ± 0.14 (pretreatment: RES+GJIC dysreg.) and 0.336 ± 0.023 under setting [2].

For `Cc1ccc2ccc3cccc4ccc1c2c34` [1-Methylpyrene] (compound abbreviation / co-treatment: 1-MePyr, exposure (dose, time): 70 µM, 10 min), the “gap junctional intercellular communication” value is, setting by setting: under setting [1], 0.956 ± 0.048; (pretreatment: GJIC dysreg.) 0.397 ± 0.072; (pretreatment: RES+GJIC dysreg.) 0.815 ± 0.15; under setting [2], 0.345 ± 0.094.
